Results on 19 compounds are retold here after PubChem BioAssay AID328 (DTP/NCI, 2004).

“And” between values parts separate entries of the source, which are not always exact repeats. Equal entries are not always repeated. Inconclusive results and toxic doses are left out.

The experiment concerns BDF1 mice, P388 leukemia ip, median survival T/C. Nature of the experiment: NCI In Vivo Anticancer Drug Screen. Data for tumor model P388 Leukemia (intraperitoneal) in B6D2F1 (BDF1) mice. Particulars: endpoint: median survival time, higher = longer survival. In a few lines:
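Read-out is survival of treated animals expressed relative to the vehicle group, as a T/C ratio.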

Where [1] appears, read: dose: 50.0 mg/kg/injection, schedule: Q04DX003 (ip), vehicle: Klucel (hydroxypropylcellulose) (HPC).
Where [2] appears, read: dose: 200.0 mg/kg/injection, schedule: Q04DX003 (ip), vehicle: saline.
Setting [3] is: dose: 400.0 mg/kg/injection, schedule: Q04DX003 (ip), vehicle: saline.
The mark [4] stands for this setting: dose: 12.5 mg/kg/injection, schedule: Q01DX009 (ip), vehicle: saline with Tween-80.
The mark [5] stands for this setting: dose: 25.0 mg/kg/injection, schedule: Q01DX009 (ip), vehicle: saline with Tween-80.
The mark [6] stands for this setting: dose: 50.0 mg/kg/injection, schedule: Q01DX009 (ip), vehicle: saline with Tween-80.
[7] abbreviates: dose: 100.0 mg/kg/injection, schedule: Q01DX009 (ip), vehicle: saline with Tween-80.
Setting [8] is: dose: 200.0 mg/kg/injection, schedule: Q01DX009 (ip), vehicle: saline with Tween-80.
The mark [9] stands for this setting: dose: 100.0 mg/kg/injection, schedule: Q04DX003 (ip), vehicle: saline.
[10] abbreviates: dose: 25.0 mg/kg/injection, schedule: Q04DX003 (ip), vehicle: saline.
The mark [11] stands for this setting: dose: 50.0 mg/kg/injection, schedule: Q04DX003 (ip), vehicle: saline.
The mark [12] stands for this setting: dose: 100.0 mg/kg/injection, schedule: Q04DX003 (ip), vehicle: Klucel (hydroxypropylcellulose) (HPC).
The mark [13] stands for this setting: dose: 200.0 mg/kg/injection, schedule: Q04DX003 (ip), vehicle: Klucel (hydroxypropylcellulose) (HPC).
Where [14] appears, read: dose: 50.0 mg/kg/injection, schedule: Q01DX009 (ip), vehicle: Klucel (hydroxypropylcellulose) (HPC).
[15] abbreviates: dose: 100.0 mg/kg/injection, schedule: Q01DX009 (ip), vehicle: Klucel (hydroxypropylcellulose) (HPC).
[16] abbreviates: dose: 200.0 mg/kg/injection, schedule: Q01DX009 (ip), vehicle: Klucel (hydroxypropylcellulose) (HPC).

With `O=C(c1ccccc1)C1CCCCC1`, the T/C (dose: 12.0 mg/kg/injection, schedule: Q04DX003 (ip), vehicle: Klucel (hydroxypropylcellulose) (HPC)) is 104 % of control; the T/C (dose: 25.0 mg/kg/injection, schedule: Q04DX003 (ip), vehicle: Klucel (hydroxypropylcellulose) (HPC)) was 109 % of control; the T/C under setting [1] was 100 % of control; the T/C under setting [2] was 107 % of control; the T/C under setting [3] was 107 % of control.
As to `OC(c1ccccc1)(C1CCNCC1)C1CC1` (stereo unspecified), the T/C (dose: 25.0 mg/kg/injection, schedule: Q01DX001 (ip), vehicle: saline) is 107 % of control; the T/C (dose: 50.0 mg/kg/injection, schedule: Q01DX001 (ip), vehicle: saline) was 107 % of control; the T/C (dose: 100.0 mg/kg/injection, schedule: Q01DX001 (ip), vehicle: saline) was 118 % of control.
Take `NC(=O)c1[nH]nc(C2OC(CO)C(O)C2O)c1O` (stereo unspecified): the T/C runs as follows: (dose: 0.25 mg/kg/injection, schedule: Q01DX009 (ip), vehicle: saline) 116 % of control; (dose: 0.5 mg/kg/injection, schedule: Q04DX003 (ip), vehicle: saline) 99 % of control and 100 % of control and 104 % of control; (dose: 0.62 mg/kg/injection, schedule: Q01DX009 (ip), vehicle: saline) 100 % of control; (dose: 0.63 mg/kg/injection, schedule: Q01DX009 (ip), vehicle: saline) 113 % of control; (dose: 1.0 mg/kg/injection, schedule: Q01DX009 (ip), vehicle: saline) 120 % of control; (dose: 1.0 mg/kg/injection, schedule: Q04DX003 (ip), vehicle: saline) 103 % of control and 109 % of control. Also, the T/C (dose: 1.25 mg/kg/injection, schedule: Q01DX009 (ip), vehicle: saline) was 100 % of control; the T/C (dose: 2.0 mg/kg/injection, schedule: Q04DX003 (ip), vehicle: saline) is 106 % of control and 108 % of control (2×); the T/C (dose: 4.0 mg/kg/injection, schedule: Q04DX003 (ip), vehicle: saline) is 99 % of control and 115 % of control; the T/C (dose: 5.0 mg/kg/injection, schedule: Q04DX003 (ip), vehicle: saline) was 118 % of control; the T/C (dose: 8.0 mg/kg/injection, schedule: Q04DX003 (ip), vehicle: saline) was 100 % of control and 112 % of control and 123 % of control; the T/C (dose: 10.0 mg/kg/injection, schedule: Q04DX003 (ip), vehicle: saline) was 107 % of control. The T/C is 123 % of control (dose: 16.0 mg/kg/injection, schedule: Q04DX003 (ip), vehicle: saline) and 118 % of control (dose: 20.0 mg/kg/injection, schedule: Q04DX003 (ip), vehicle: saline).
For `S=c1nc2[nH]c3ccccc3c2n[nH]1`, the T/C is 100 % of control (dose: 6.25 mg/kg/injection, schedule: Q01DX009 (ip), vehicle: saline with Tween-80); 97 % of control under setting [4]; 88 % of control under setting [5]; 96 % of control under setting [6]; 98 % of control under setting [7]; 96 % of control under setting [8].
Take `N=c1c(C(N)=O)cnc2n1CCCCC2`: the T/C under setting [9] is 109 % of control.
Turning to `O=C(Nc1ccc(C2=NCCCN2)cc1)c1ccc(NC(=O)c2ccc(C3=NCCCN3)cc2)cc1`, the T/C by setting is: (dose: 13.2 mg/kg/injection, schedule: Q04DX003 (ip), vehicle: saline with Tween-80) 160 % of control and 168 % of control; (dose: 20.0 mg/kg/injection, schedule: Q04DX003 (ip), vehicle: saline with Tween-80) 181 % of control and 220 % of control; (dose: 30.0 mg/kg/injection, schedule: Q04DX003 (ip), vehicle: saline with Tween-80) 263 % of control and 300 % of control.
`CCN(CCO)c1ccc(N)cc1C`: the T/C is 100 % of control (dose: 1.56 mg/kg/injection, schedule: Q01DX009 (ip), vehicle: saline); 100 % of control (dose: 3.13 mg/kg/injection, schedule: Q01DX009 (ip), vehicle: saline); 90 % of control (dose: 6.25 mg/kg/injection, schedule: Q01DX009 (ip), vehicle: saline).
Regarding `NCCc1ccc(OCc2ccccc2)c(OCc2ccccc2)c1`, the T/C by setting is: (dose: 8.0 mg/kg/injection, schedule: Q01DX009 (ip), vehicle: saline) 100 % of control; (dose: 12.0 mg/kg/injection, schedule: Q01DX009 (ip), vehicle: saline) 104 % of control; (dose: 12.5 mg/kg/injection, schedule: Q04DX003 (ip), vehicle: saline) 104 % of control; (dose: 18.0 mg/kg/injection, schedule: Q01DX009 (ip), vehicle: saline) 116 % of control; under setting [10], 104 % of control; under setting [11], 100 % of control.
Consider `CC(C)(C)C1CCC(O)C(Cl)C1` (stereo unspecified), for which the T/C runs as follows: under setting [1], 95 % of control; under setting [12], 109 % of control; under setting [13], 109 % of control.
Consider `CN/N=C/c1c2c(O)c3c(O)c(C)c4c(c3c1O)C(=O)C(C)(O/C=C/C(OC)C(C)C(OC(C)=O)C(C)C(O)C(C)C(O)C(C)/C=C/C=C(/C)C(=O)N2)O4` (stereo unspecified), for which the T/C was 90 % of control under setting [6], 116 % of control under setting [7] and 117 % of control under setting [8].
`CCCOC(=O)c1ccc(OP(=O)(N(C)C)N(C)C)cc1`: the T/C under setting [6] is 100 % of control, the T/C under setting [7] is 104 % of control and the T/C under setting [8] is 100 % of control.
For `O=c1[nH]c2nccnc2[nH]1`, the T/C was 93 % of control and 99 % of control (dose: 12.5 mg/kg/injection, schedule: Q01DX009 (ip), vehicle: water); 90 % of control and 104 % of control (dose: 25.0 mg/kg/injection, schedule: Q01DX009 (ip), vehicle: water); 97 % of control (dose: 50.0 mg/kg/injection, schedule: Q01DX009 (ip), vehicle: water); 107 % of control (dose: 50.0 mg/kg/injection, schedule: Q04DX003 (ip), vehicle: water); 89 % of control and 101 % of control and 109 % of control (dose: 100.0 mg/kg/injection, schedule: Q01DX009 (ip), vehicle: water); 105 % of control (dose: 100.0 mg/kg/injection, schedule: Q04DX003 (ip), vehicle: water). For the same compound, the T/C is, setting by setting: (dose: 200.0 mg/kg/injection, schedule: Q04DX003 (ip), vehicle: water) 107 % of control; (dose: 400.0 mg/kg/injection, schedule: Q04DX003 (ip), vehicle: water) 116 % of control.
Regarding `COc1ccc(/C=C/C(=O)c2ccc(OC)c(OC)c2)cc1OC`, the T/C runs as follows: under setting [7], 90 % of control; under setting [8], 104 % of control; (dose: 400.0 mg/kg/injection, schedule: Q01DX009 (ip), vehicle: saline with Tween-80) 118 % of control.
Consider `Nc1ccc2cc(Cl)ccc2c1`, for which the T/C under setting [7] was 90 % of control.
With `CC(c1ccccc1)N1CCS(=O)(=O)CC1` (stereo unspecified), the T/C by setting is: under setting [14], 93 % of control; under setting [15], 106 % of control; under setting [16], 90 % of control.
In the case of `CNC(=S)N(N)c1ccccc1`, the T/C is 108 % of control under setting [14]; 94 % of control under setting [15]; 90 % of control under setting [12]; 95 % of control under setting [16]; 95 % of control under setting [13].
As for `CC1CC2C(CC1O)C2(C)C` (stereo unspecified), the T/C reads like this: under setting [4], 100 % of control; under setting [5], 95 % of control; under setting [6], 109 % of control; (dose: 100.0 mg/kg/injection, schedule: Q04DX003 (ip), vehicle: saline sonified) 111 % of control; (dose: 200.0 mg/kg/injection, schedule: Q04DX003 (ip), vehicle: saline sonified) 111 % of control; (dose: 400.0 mg/kg/injection, schedule: Q04DX003 (ip), vehicle: saline sonified) 100 % of control.
Turning to `CSCC(N)CO` (stereo unspecified), the T/C is, setting by setting: under setting [10], 104 % of control; under setting [11], 111 % of control and 116 % of control; under setting [9], 116 % of control; under setting [2], 109 % of control and 111 % of control; under setting [3], 90 % of control and 120 % of control.
Turning to `CCCCNC(C)(C)C(=O)c1cccs1`, the T/C (dose: 25.0 mg/kg/injection, schedule: Q01DX009 (ip), vehicle: saline) was 100 % of control; the T/C (dose: 50.0 mg/kg/injection, schedule: Q01DX009 (ip), vehicle: saline) was 100 % of control; the T/C under setting [11] was 100 % of control; the T/C (dose: 100.0 mg/kg/injection, schedule: Q01DX009 (ip), vehicle: saline) is 100 % of control; the T/C under setting [9] is 118 % of control.
